Experimental findings from patent publication US10233188B2, “CDK2/4/6 inhibitors” (priority 2016, dated 2019) are described below.

Holding throughout (test): biochemical
One experiment addresses CDK6/Cyclin D1 (Homo sapiens (Human), UniProt Q00534). The settings on record: CDK6_Ki (nM), non-phosphorylated CDK6/Cyclin D1, 2 mM ATP, Morrison fit.
Another experiment has as its target CDK2/Cyclin E1 (Homo sapiens (Human), UniProt P24941). The settings on record: CDK2_Ki (nM), phosphorylated CDK2/Cyclin E1, 150 μM ATP, Morrison tight-binding fit.
A further experiment addresses CDK4/Cyclin D3 (Homo sapiens (Human), UniProt P11802).

Sequence of CDK4/Cyclin D3 (P11802 whole entry): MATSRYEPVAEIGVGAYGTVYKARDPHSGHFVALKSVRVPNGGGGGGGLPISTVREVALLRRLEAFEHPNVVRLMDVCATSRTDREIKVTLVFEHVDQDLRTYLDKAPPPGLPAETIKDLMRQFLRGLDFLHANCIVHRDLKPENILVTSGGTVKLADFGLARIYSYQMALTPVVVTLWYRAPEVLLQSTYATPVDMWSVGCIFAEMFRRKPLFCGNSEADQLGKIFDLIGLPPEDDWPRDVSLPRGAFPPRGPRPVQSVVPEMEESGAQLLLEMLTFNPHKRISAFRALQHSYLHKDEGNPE
Sequence of CDK4/Cyclin D3 (P30281 whole entry partner): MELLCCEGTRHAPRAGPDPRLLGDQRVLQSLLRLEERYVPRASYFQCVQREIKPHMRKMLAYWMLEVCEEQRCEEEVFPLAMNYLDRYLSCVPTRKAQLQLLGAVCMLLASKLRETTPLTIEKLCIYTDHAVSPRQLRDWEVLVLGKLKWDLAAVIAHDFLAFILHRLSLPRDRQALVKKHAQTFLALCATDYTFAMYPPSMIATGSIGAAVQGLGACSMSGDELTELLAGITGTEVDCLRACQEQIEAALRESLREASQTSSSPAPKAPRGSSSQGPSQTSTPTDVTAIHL
Sequence of CDK6/Cyclin D1 (Q00534 whole entry): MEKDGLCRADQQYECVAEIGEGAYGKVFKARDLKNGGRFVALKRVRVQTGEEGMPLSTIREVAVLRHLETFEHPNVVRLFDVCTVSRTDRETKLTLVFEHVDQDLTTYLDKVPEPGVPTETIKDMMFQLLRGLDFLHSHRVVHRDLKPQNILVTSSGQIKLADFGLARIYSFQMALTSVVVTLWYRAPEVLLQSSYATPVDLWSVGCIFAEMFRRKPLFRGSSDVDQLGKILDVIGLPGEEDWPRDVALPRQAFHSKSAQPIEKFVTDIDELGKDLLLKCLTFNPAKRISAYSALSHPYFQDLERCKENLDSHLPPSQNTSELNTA
Sequence of CDK6/Cyclin D1 (P24385 whole entry partner): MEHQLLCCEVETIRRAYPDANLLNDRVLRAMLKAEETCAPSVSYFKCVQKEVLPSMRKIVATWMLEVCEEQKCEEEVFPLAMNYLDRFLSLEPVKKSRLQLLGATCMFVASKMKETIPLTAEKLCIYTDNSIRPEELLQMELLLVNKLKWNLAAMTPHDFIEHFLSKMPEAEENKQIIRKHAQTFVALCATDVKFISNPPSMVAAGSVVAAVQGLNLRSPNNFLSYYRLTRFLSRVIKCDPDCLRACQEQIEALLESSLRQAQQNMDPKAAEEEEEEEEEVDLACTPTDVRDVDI
Protocol for CDK2/Cyclin E1: The assay was initiated with the addition of ATP, following a fifteen minutes pre-incubation of enzyme and inhibitor at room temperature in the reaction mixture. The reaction was stopped after 45 minutes at room temperature by the addition of 50 μL of 80 mM EDTA, pH 7.5.

For the compound `CS(=O)(=O)N1CCC(Nc2ncc3ccc(=O)n([C@@H]4CCC[C@@H](O)C4)c3n2)CC1` [Example 3, 8-[(1R,3R)-3-hydroxycyclohexyl]-2-{[1-(methylsulfonyl)piperidin-4-yl]amino}pyrido[2,3-d]pyrimidin-7(8H)-one], the Ki at CDK6/Cyclin D1 turned out to be 1.17 nM; at CDK2/Cyclin E1, 0.26 nM; at CDK4/Cyclin D3, 3.43 nM.

Take `C[C@@]1(O)CCC[C@H]1n1c(=O)c(F)cc2cnc(NC3CCN(S(C)(=O)=O)CC3)nc21` (single isomer, unassigned) [Example 6, (−)-6-fluoro-8-[(1R*,2R*)-2-hydroxy-2-methylcyclopentyl]-2-{[1-(methylsulfonyl)piperidin-4-yl]amino}pyrido[2,3-d]pyrimidin-7(8H)-one]: the Ki was 2.38 nM on CDK6/Cyclin D1, 0.48 nM on CDK2/Cyclin E1 and 3.94 nM on CDK4/Cyclin D3.

For the compound `C[C@@]1(O)CCC[C@H]1n1c(=O)c(CC#N)cc2cnc(NC3CCN(S(C)(=O)=O)CC3)nc21` (single isomer, unassigned) [Example 120, (−)-(8-[(1R*,2R*)-2-hydroxy-2-methylcyclopentyl]-2-{[1-(methylsulfonyl)piperidin-4-yl]amino}-7-oxo-7,8-dihydropyrido[2,3-d]pyrimidin-6-yl)acetonitrile], the Ki at CDK6/Cyclin D1 was found to be 0.18 nM; at CDK2/Cyclin E1, 0.16 nM; on CDK4/Cyclin D3, 0.34 nM.

Turning to `Cc1cc2cnc(NC3CCN(S(=O)(=O)NC4CCOCC4)CC3)nc2n([C@@H]2CCC[C@@]2(C)O)c1=O` (single isomer, unassigned) [Example 96, (−)-4-({8-[(1R*,2R*)-2-hydroxy-2-methylcyclopentyl]-6-methyl-7-oxo-7,8-dihydropyrido[2,3-d]pyrimidin-2-yl}amino)-N-(tetrahydro-2H-pyran-4-yl)piperidine-1-sulfonamide], the Ki on CDK6/Cyclin D1 was 1.06 nM; at CDK2/Cyclin E1, 0.24 nM.

As for `C[C@@]1(O)CCC[C@H]1n1c(=O)ccc2cnc(NC3CCN(S(=O)(=O)c4nccs4)CC3)nc21` (single isomer, unassigned) [Example 78, (−)-8-[(1R*,2R*)-2-hydroxy-2-methylcyclopentyl]-2-{[1-(1,3-thiazol-2-ylsulfonyl)piperidin-4-yl]amino}pyrido[2,3-d]pyrimidin-7(8H)-one], the Ki on CDK6/Cyclin D1 amounted to 1.63 nM; on CDK2/Cyclin E1 it was 0.25 nM.

As for `C[C@@]1(O)CCC[C@H]1n1c(=O)ccc2cnc(NC3CCN(S(=O)(=O)CC(F)(F)F)CC3)nc21` (single isomer, unassigned) [Example 86, (−)-8-[(1R*,2R*)-2-hydroxy-2-methylcyclopentyl]-2-({1-[(2,2,2-trifluoroethyl)sulfonyl]piperidin-4-yl}amino)pyrido[2,3-d]pyrimidin-7(8H)-one], the Ki amounted to 1.6 nM at CDK6/Cyclin D1 and 0.45 nM at CDK2/Cyclin E1.

As to `C[C@]1(O)CCC[C@@H]1n1c(=O)ccc2cnc(NC3CCN(S(N)(=O)=O)CC3)nc21` (single isomer, unassigned) [Example 184, (+)-4-({8-[(1R*,2R*)-2-hydroxy-2-methylcyclopentyl]-7-oxo-7,8-dihydropyrido[2,3-d]pyrimidin-2-yl}amino)piperidine-1-sulfonamide], the Ki on CDK6/Cyclin D1 was determined as 11.8 nM; at CDK2/Cyclin E1, 1.46 nM.

For the compound `C[C@]1(O)CCC[C@@H]1n1c(=O)c(C(F)F)cc2cnc(NC3CCN(S(N)(=O)=O)CC3)nc21` (single isomer, unassigned) [Example 188, (+)-4-({6-(difluoromethyl)-8-[(1R*,2R*)-2-hydroxy-2-methylcyclopentyl]-7-oxo-7,8-dihydropyrido[2,3-d]pyrimidin-2-yl}amino)piperidine-1-sulfonamide], the Ki on CDK6/Cyclin D1 was determined as 2.4 nM; on CDK2/Cyclin E1, 0.7 nM.

On to `Cc1cc2cnc(NC3CCN(S(C)(=O)=O)CC3)nc2n(C2CCCCC(O)C2)c1=O` (single isomer, unassigned; isomer b) [Example 224, 8-(3-hydroxycycloheptyl)-6-methyl-2-{[1-(methylsulfonyl)piperidin-4-yl]amino}pyrido[2,3-d]pyrimidin-7(8H)-one-Isomer B], for which the values for the Ki at CDK6/Cyclin D1 and at CDK2/Cyclin E1 were 12 nM and 24.9 nM, respectively.

A word on the Ki: it is the dissociation constant of the complex between target and ligand, obtained from inhibition or displacement. Higher therefore signals weaker binding.
